Our source for the IC50 values is BindingDB's records for doi:10.1046/j.1471-4159.2000.751294.x (University of California, 2000).

A word on the IC50: it is the concentration needed to halve the response being measured. Read a low IC50 as higher potency.

The nature of this assay: Displacement of [3H]IMI from nicotinic acetylcholine receptor in Aphis craccivora (cowpea aphid) whole body membrane after 90 min by filter binding assay. (Displacement assays read how much labelled ligand stays bound in the presence of the test substance.)
For the molecule `C/N=C(\NCc1ccc(Cl)nc1)N[N+](=O)[O-]`, the IC50 is 4.4 nM. The figure for `O=[N+]([O-])/N=C1\NCOCN1Cc1ccc(Cl)nc1` is 15 nM. The figure for `O=[N+]([O-])/N=C1\NCOCN1Cc1cnc(Cl)s1` [DESMETHYLTHIAMETHOXAM] is 11 nM. Turning to `O=[N+]([O-])/N=C1\NCCN1Cc1cnc(Cl)s1` [IMIDACLOTHIZ], the IC50 came to 8.2 nM. The IC50 values of the last two molecules are within 1.5-fold of each other.
